# Assay results published in US10881640B2, “Topical pharmaceutical compositions for treatment of pilonidal sinus wounds” (S.L.A. PHARMA AG, priority 2002, dated 2021).
# Tested on: ischemic ulcers
# Assay: Case report: ischemic ulcers (peripheral vascular disease)
# Assay type: in vivo, human
# Settings: person, prior therapy before topical treatment
# From the text: A person presents with chronic peripheral vascular disease and ischemic ulcers over the medial aspect of the hallux.
compound,measurement,value
CC(=O)CCCCn1c(=O)c2c(ncn2C)n(C)c1=O [Trental],healing,failed to improve healing
